Experimental data published in patent US8679803B2, “Glucose conversion to ethanol via yeast cultures and bicarbonate ions” (Church & Dwight Co., Inc., priority 2007, dated 2014).
Like-named read-outs stand apart in the source and are kept apart here.

Tested on: Saccharomyces cerevisiae (Ethanol Red)
Settings: yeast 2.4 g/L, glucose concentration at 10%
Method: Various concentrations of yeast were added to glucose based liquid media with and without NaHCO3 and the fermentation process monitored for glucose consumption and ethanol production.
The fermentation media consisted of 25 gm of glucose and 1 ml of urea (45%) in 250 ml of water. The pH of the system was adjusted to 4.5 with 1 M H2SO4. The temperature of incubation was about 32° C., and the tests were conducted for 72 hours. The tests compared fermentation systems with and without sodium bicarbonate (NaHCO3). NaHCO3 was added to final concentrations of 200 ppm or 500 ppm in the test vessels. […] In some vessels the pH was readjusted to 4.5. Yeasts (Saccharomyces cerevisiae (Ethanol Red) diluted 1 to 5 in water, were added to the various test vessels at 0.5, 2, 3, 4 and 5 ml. Yeasts at 3 ml in the vessel corresponds to 2.4 g/L. The fermentation media vessels were monitored for glucose utilization and ethanol production via HPLC measurement at 2, 4, 6, 24, 48 and 72 hours.

## O=C([O-])O.[Na+] [SBC, sodium bicarbonate]
SBC 200 ppm
  Ethanol (% after 48 hours): 4.8%
SBC 500 ppm
  Ethanol (% after 48 hours): 4.8%
